This experiment concerns the target Alpha-glucosidase MAL12 (Saccharomyces cerevisiae (strain ATCC 204508 / S288c), UniProt P53341). The experiment can be described thus: In vitro Assay of alpha-Glucosidasee Inhibitory Activity. To be noted: pH 6.8. The method, then:
The test compounds were dissolved in DMSO to prepare the required distributing concentration. α-Glucosidase inhibitory activity was assayed by using 50 mM phosphate buffer (pH 6.8) at 37 °C. The enzymatic reaction mixture composed of 20 µL α-glucosidase (0.2 U), 10 µL of various concentrations of test compounds and 140 µL of phosphate buffer was incubated at 37 °C for 10 min. Then 0.5 mM p-nitrophenyl α-D-glucopyranoside (30 µL) was added to the mixture as a substrate. After further incubation at 37 °C for 30 min. The absorbance was measured spectrophotometrically at 405 nm. The sample solution was replaced by DMSO as a control. Acarbose was used as a positive control. All experiments were carried out in triplicates.

pIC50: −log10 of the molar value.

Alpha-glucosidase MAL12, sequence (P53341 whole entry): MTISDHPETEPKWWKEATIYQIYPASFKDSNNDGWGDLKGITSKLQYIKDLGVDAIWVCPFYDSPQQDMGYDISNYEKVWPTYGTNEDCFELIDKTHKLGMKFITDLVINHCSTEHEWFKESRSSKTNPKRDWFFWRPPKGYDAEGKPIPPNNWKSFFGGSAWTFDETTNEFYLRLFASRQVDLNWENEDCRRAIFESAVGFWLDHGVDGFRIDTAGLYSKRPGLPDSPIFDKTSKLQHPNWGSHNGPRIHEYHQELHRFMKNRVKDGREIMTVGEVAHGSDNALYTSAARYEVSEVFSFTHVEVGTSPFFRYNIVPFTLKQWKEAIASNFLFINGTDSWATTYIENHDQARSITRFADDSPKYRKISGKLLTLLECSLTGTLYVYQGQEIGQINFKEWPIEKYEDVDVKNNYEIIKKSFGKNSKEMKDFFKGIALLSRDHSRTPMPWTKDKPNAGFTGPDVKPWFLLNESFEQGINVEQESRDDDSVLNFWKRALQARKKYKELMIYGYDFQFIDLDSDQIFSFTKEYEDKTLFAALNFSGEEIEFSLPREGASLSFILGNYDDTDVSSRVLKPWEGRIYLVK

On to `COc1ccccc1/C=N/NC(=O)c1nc(-c2cc3ccccc3oc2=O)cs1` [(E)-N'-(2-Methoxybenzylidene)-4-(2-oxo-2H-chromen-3-yl)thiazole-2-carbohydrazide (7s)], for which the pIC50 (as a rule, the negative decadic logarithm of the IC50, by convention in mol/L) is 4.19.

`O=C(N/N=C/c1cc(Cl)ccc1O)c1nc(-c2cc3ccccc3oc2=O)cs1` [(E)-N'-(5-Chloro-2-hydroxybenzylidene)-4-(2-oxo-2Hchromen-3-yl)thiazole-2-carbohydrazide (7h)]: the pIC50 was 5.08.

For the compound `O=C(N/N=C/c1ccc(O)c(O)c1)c1nc(-c2cc3ccccc3oc2=O)cs1` [(E)-N'-(3,4-Dihydroxybenzylidene)-4-(2-oxo-2H-chromen-3-yl)thiazole-2-carbohydrazide (7k)], the pIC50 was 4.74.

Regarding `O=C(N/N=C/c1ccccc1O)c1nc(-c2cc3ccccc3oc2=O)cs1` [(E)-N'-(2-Hydroxybenzylidene)-4-(2-oxo-2H-chromen-3-yl)thiazole-2-carbohydrazide (7b)], the negative logarithm of the IC50 (pIC50) is 4.43.

The compound `O=C(N/N=C/c1ccc(Cl)cc1)c1nc(-c2cc3ccccc3oc2=O)cs1` [(E)-N'-(4-Chlorobenzylidene)-4-(2-oxo-2H-chromen-3-yl)thiazole-2-carbohydrazide (7m)] gave a pIC50 of 4.98.

As for `O=C(N/N=C/c1cccc(Br)c1)c1nc(-c2cc3ccccc3oc2=O)cs1` [(E)-N'-(3-bromobenzylidene)-4-(2-oxo-2H-chromen-3-yl)thiazole-2-carbohydrazide (7r)], the pIC50 was 4.85.

`O=C(N/N=C/c1ccc(O)c(F)c1)c1nc(-c2cc3ccccc3oc2=O)cs1` [(E)-N'-(3-Fluoro-4-hydroxybenzylidene)-4-(2-oxo-2Hchromen-3-yl)thiazole-2-carbohydrazide (7g)] gave a pIC50 of 4.78.

With `O=C(N/N=C/c1cccc(Cl)c1)c1nc(-c2cc3ccccc3oc2=O)cs1` [(E)-N'-(3-Chlorobenzylidene)-4-(2-oxo-2H-chromen-3-yl)thiazole-2-carbohydrazide (7n)], the negative-log IC50 (pIC50) is 4.92.

`O=C(N/N=C/c1ccc(C(F)(F)F)cc1)c1nc(-c2cc3ccccc3oc2=O)cs1` [(E)-4-(2-Oxo-2H-chromen-3-yl)-N'-(4-(trifluoromethyl)benzylidene)thiazole-2-carbohydrazide (7o)] had a negative-log IC50 (pIC50) of 4.80.

The compound `O=C(N/N=C/c1ccc(O)cc1)c1nc(-c2cc3ccccc3oc2=O)cs1` [(E)-N'-(4-Hydroxybenzylidene)-4-(2-oxo-2H-chromen-3-yl)thiazole-2-carbohydrazide (7c)] showed a pIC50 of 4.60.

`COc1ccc(/C=N/NC(=O)c2nc(-c3cc4ccccc4oc3=O)cs2)c(O)c1` [(E)-N'-(2-Hydroxy-4-methoxybenzylidene)-4-(2-oxo-2Hchromen-3-yl)thiazole-2-carbohydrazide (7i)] showed a pIC50 of 4.52.

`CC(C)(C)c1cc(/C=N/NC(=O)c2nc(-c3cc4ccccc4oc3=O)cs2)c(O)c(C(C)(C)C)c1` [(E)-N'-(3,5-Di-tert-butyl-2-hydroxybenzylidene)-4-(2-oxo-2Hchromen-3-yl)thiazole-2-carbohydrazide (7d)] had a negative-log IC50 (pIC50) of 4.99.

On to `O=C(N/N=C/c1cccc(F)c1)c1nc(-c2cc3ccccc3oc2=O)cs1` [(E)-N'-(3-Fluorobenzylidene)-4-(2-oxo-2H-chromen-3-yl)thiazole-2-carbohydrazide (7q)], for which the negative-log IC50 (pIC50) is 4.65.

Take `COc1ccc(/C=N/NC(=O)c2nc(-c3cc4ccccc4oc3=O)cs2)cc1` [(E)-N'-(4-Methoxybenzylidene)-4-(2-oxo-2H-chromen-3-yl)thiazole-2-carbohydrazide (7a)]: the negative logarithm of the IC50 (pIC50) was 4.09.

`O=C(N/N=C/c1ccccc1F)c1nc(-c2cc3ccccc3oc2=O)cs1` [(E)-N'-(2-Fluorobenzylidene)-4-(2-oxo-2H-chromen-3-yl)thiazole-2-carbohydrazide (7p)] showed a pIC50 of 4.63.
